Measurements taken from patent US9464106B2, “Oligonucleotides useful for detecting and analyzing nucleic acids of interest” (Exiqon A/S, priority 2002, dated 2016).
l = locked nucleic acid (LNA); [5mC] = 5-methylcytosine; d = 2'-deoxy (DNA)

What follows are substances tested on yeast HSP78 (YDR258C) sequence (assay: Duplex melting temperatures of HSP78 25-mer capture probes (UV spectrophotometer)). Details: 25-mer capture probe duplex with complementary target; design PM = perfectly matched, MM = single mismatch; DNA, LNA_T (T) or LNA_TC (TC) substituted.

Substance | Average duplex melting temp. [°C]
12786 (DNA ATAGCAGCAATGGCCTCGTCTTGGC; DNA at ACG, LNA at T, backbone not given here; further chemistry not fully specified) [compound 12786] | 80.1
12787 (DNA GCAATGGCCTCGTCTTGGCCAACGA; DNA at ACG, LNA at T, backbone not given here; further chemistry not fully specified) [compound 12787] | 80.8
12788 (DNA GATGAACTCAGGTGGATAGGATCTT; sugars from the 5' end ddlddddlddddldddlddddldld, backbone not given here; further chemistry not fully specified) [compound 12788] | 71
12789 (DNA TCAGTTAGCCAATCCTTCGCTTCAT; sugars from the 5' end ldddllddddddlddlldddllddd, backbone not given here; further chemistry not fully specified) [compound 12789] | 75.7
12790 (DNA GTTGCCATGGAGTTCAAAATCTGTC; sugars from the 5' end dllddddlddddlddddddldldld, backbone not given here; further chemistry not fully specified) [compound 12790] | 74.7
12791 (DNA AGACGTACAGCATCAGAAATAGCAG; DNA at ACG, LNA at T, backbone not given here; further chemistry not fully specified) [compound 12791] | 71.4
12792 (DNA TTTGGTAGCACGACAAGCTTAGTAT; sugars from the 5' end lllddlddddddddddddllddldd, backbone not given here; further chemistry not fully specified) [compound 12792] | 74.2
12793 (DNA ATAAAGCTGGCAATAGGTCTCTTTT; sugars from the 5' end dldddddldddddldddldldllld, backbone not given here; further chemistry not fully specified) [compound 12793] | 74.3
12794 (DNA TTTTTCGGCCAAACGATCTTGAATT; sugars from the 5' end ldllldddddddddddldlldddld, backbone not given here; further chemistry not fully specified) [compound 12794] | 71
12795 (DNA CACTCTAACAGTTTCGCCGTTTCTA; sugars from the 5' end dddldlddddddlddddddllldld, backbone not given here; further chemistry not fully specified) [compound 12795] | 75.5
12796 (DNA TCAATGGCCTTGCACCATATAATTG; DNA at ACG, LNA at T, backbone not given here; further chemistry not fully specified) [compound 12796] | 74
12797 (DNA AAAACGACAGCATAAGGCTTTCTTC; DNA at ACG, LNA at T, backbone not given here; further chemistry not fully specified) [compound 12797] | 71.7
12798 (DNA ATTGACCTCAAAACTTTCTTGGATA; DNA at ACG, LNA at T, backbone not given here; further chemistry not fully specified) [compound 12798] | 70.2
12799 (DNA CCCAACTTTGTGTCGTTTAATAAAA; DNA at ACG, LNA at T, backbone not given here; further chemistry not fully specified) [compound 12799] | 75.1
12800 (DNA ACCATCATCACCCAACCTTGTGTCG; sugars from the 5' end dlddlddldddllddddlddlddld, [5mC] at 2, 12, 13, 24, backbone not given here; further chemistry not fully specified) [compound 12800] | 74.2
12802 (DNA TGGCCTAGGGAATCGGTCAGCTTAC; sugars from the 5' end lddldlddddddllddldddldldd, [5mC] at 4, 14, 21, backbone not given here; further chemistry not fully specified) [compound 12802] | 83.6
12803 (DNA TTGGAAACATCGGGGTGCGCTTTTT; sugars from the 5' end lldddddlddlddddldldddldld, [5mC] at 8, 11, 18, backbone not given here; further chemistry not fully specified) [compound 12803] | 80.8
12804 (DNA GAAACATCGGGGTGCGCTTTTTCAA; sugars from the 5' end ddddldllddddldldddddldldd, [5mC] at 5, 8, 15, 23, backbone not given here; further chemistry not fully specified) [compound 12804] | 83.2
12805 (DNA GACAGCCTCAGTTAATTGGCCACCA; sugars from the 5' end ddlddldlddddlddlldddlddld, [5mC] at 3, 6, 21, 24, backbone not given here; further chemistry not fully specified) [compound 12805] | 82.5
12806 (DNA CCGATTAAACGAGAGACAGTATGCT; sugars from the 5' end llddlldddlddddddlddldldld, all C 5-methyl, backbone not given here; further chemistry not fully specified) [compound 12806] | 79.4
12807 (DNA ATCAAATAGGAATTCAGCTAAAGCC; sugars from the 5' end dlldddldddddldlddllddddld, [5mC] at 3, 15, 18, 24, backbone not given here; further chemistry not fully specified) [compound 12807] | 71.4
12808 (DNA GACCTAAGAACATAAAGCTGGCAAT; sugars from the 5' end ddllldddddldlddddllddlddd, all C 5-methyl, backbone not given here; further chemistry not fully specified) [compound 12808] | 78.9
12809 (DNA AAATAGCAGCAATGGCCTCGTCTTG; sugars from the 5' end dddlddlddlddlddldlldlddld, [5mC] at 7, 10, 16, 19, backbone not given here; further chemistry not fully specified) [compound 12809] | 86.8
12810 (DNA ATAGCAGCAATGGCCTCGTCTTGGC; sugars from the 5' end dlddldddddlddldldddldlddd, [5mC] at 5, 14, 20, backbone not given here; further chemistry not fully specified) [compound 12810] | 83
